≈ marks a conversion by molar mass, not a printed value. Where two headings read alike, the source gives them in different places.
Assays:
Assay type in all cases: cell-based
[1] = test system: ten randomly selected isolates of T. tonsurans; assay: Susceptibility of ten T. tonsurans isolates, broth microdilution NCCLS M38-P; details: for MIC: Trichophyton tonsurans
Protocol: (§1) Isolates were tested using the method described in the National Committee for Clinical Laboratory Standards (NCCLS) document M38-P for filamentous fungi, with dermatophyte specific modifications described by Fernández-Torres et al, Current topics in Medical Mycology, 14-19 Feb. 1999.
(§2) Five dermatophyte isolates were, namely; T. rubrum, T. mentagrophytes, T. tonsurans, M. canis and M. gypseum, all of which produce lipases and some, phospholipase. These isolates were tested by the broth microdilution method according to NCCLS document M38-P, for activity against selected antifungal agents. In addition, ten randomly selected isolates of T. tonsurans were also tested. All isolates were maintained on SDA at 28° C. Candida parapsilosis (ATCC 20019) was used as the reference control is organism.
(§3) The microdilution plates used were a single lot of RPMI 1640 basal medium (JRH bioScience Inc. Lenexa, Kans., USA) with L-glutamine and without sodium bicarbonate, buffered to pH 7.0, at 25° C., with 0.165 M (MOPS) morpholinepropanesulfonic acid (Sigma).
(§4) Powdered drugs were dissolved in 100% dimethyl sulfoxide (DMSO), at concentrations 100 times higher than the final test concentration. All compounds were prepared in 100% (DMSO). For ITRA and TRB, two-fold drug dilutions were prepared in 100% DMSO at 100 times the final concentration, followed by further dilution 1:50 in RPMI medium, to yield 2× the final strength required for the test.
(§5) Fungal cultures were subcultured onto Potato Dextrose Agar and grown at 28° C. for 7-10 days. Fungal suspensions were covered with 5 ml of distilled water, and then colonies were scraped off with cotton tipped swabs. The resulting mixture of conidia and hyphae elements was withdrawn, transferred to a sterile tube and then vortexed with glass beads. After the particles settled, the upper homogeneous suspension was collected and its density adjusted by a densitometer to a 0.5 McFarland standard at the wavelength of 530 nm (80-85% transmittance). These stock suspensions were then diluted 1:50 with RPMI medium to obtain final working inoculum concentration ranging from 0.3×10^4 to 9×10^4 CFU/ml. Inoculum quantification was performed by plating 100 μl of the 1:1000 dilution of the adjusted inoculum on SDA plates, incubated at 28° C., and after 7 days of incubation, the colonies were counted.
(§6) Testing was based on NCCLS M38-P document for testing filamentous moulds. Testing was carried out in sterile 96-well flat bottomed microtitre plate. Columns 1 and 3 to 12 were filled with 100 μl of RPMI medium, leaving column 2 unfilled. Columns 1, 2 and 3 were filled with 100 μl of 2× drug concentration. Serial dilutions were then made by transferring 100 μl from column 3 to each column up to column 11, and 100 μl from column 11 was discarded. Column 12 served as drug free growth control. Finally, 100 μl of inoculum suspension was added to all wells except column 1, which acted as sterility control (Columns 1 and 12 served as sterility and growth control respectively). Plates were incubated at 28° C. for 7 days, and read at 3 days and 7 days of incubation. All testing was performed in duplicate, on three separate occasions.
(§7) Growth in microtitre trays were read by visual inspection by using an illuminated-reversed mirror. Growth in each well was compared with the “growth control” drug free well. The MIC end point for all the drugs was chosen to be the first well with 100% growth inhibition (i.e. the lowest drug concentration inhibiting growth).

M. canis = assay: Susceptibility of dermatophytes, broth microdilution NCCLS M38-P; details: for MIC: Microsporum canis
Protocol: as §1, §2, §3, §4, §5, §6, §7

T. tonsurans = assay: as above; details: for MIC: Trichophyton tonsurans
Protocol: as §1, §2, §3, §4, §5, §6, §7

M. gypseum = assay: as above; details: for MIC: Nannizzia gypsea
Protocol: as §1, §2, §3, §4, §5, §6, §7

T. mentagrophytes = assay: as above; details: 100% growth inhibition, 28° C.; for MIC: Trichophyton mentagrophytes
Protocol: as §1, §2, §3, §4, §5, §6, §7

T. rubrum = assay: as above; details: for MIC: Trichophyton rubrum
Protocol: as §1, §2, §3, §4, §5, §6, §7

CCC(C)n1ncn(-c2ccc(N3CCN(c4ccc(OCC5COC(Cn6cncn6)(c6ccc(Cl)cc6Cl)O5)cc4)CC3)cc2)c1=O (stereo not shown) [Itraconazole]
MIC Range ([1]; T. tonsurans 1): 0.03 to 0.125 µg/mL | MIC Range ([1]; T. tonsurans 2): 0.125 to 2.0 µg/mL | MIC Range ([1]; T. tonsurans 4): 0.5 µg/mL (≈ 0.709 µM) | MIC Range ([1]; T. tonsurans 5): 0.25 to 0.5 µg/mL | MIC Range ([1]; T. tonsurans 6): 0.25 to 2.0 µg/mL | MIC Range ([1]; T. tonsurans 7): 0.5 to 1.0 µg/mL | MIC Range ([1]; T. tonsurans 8): 0.25 to 2.0 µg/mL | MIC Range ([1]; T. tonsurans 9): 0.125 to 1.0 µg/mL | MIC Range ([1]; T. tonsurans 10): 0.25 to 1.0 µg/mL | MIC Range ([1]; T.tonsurans 3): 0.06 to 0.5 µg/mL | MIC ([1]; T. tonsurans 1, read-out: MIC GM): 0.12 µg/mL (≈ 0.17 µM) | MIC ([1]; T. tonsurans 2, read-out: MIC GM): 0.397 µg/mL (≈ 0.563 µM) | MIC ([1]; T. tonsurans 2, read-out: MIC Mean): 0.604 µg/mL (≈ 0.856 µM) | MIC ([1]; T. tonsurans 4, read-out: MIC GM): 0.5 µg/mL (≈ 0.709 µM) | MIC ([1]; T. tonsurans 4, read-out: MIC Mean): 0.5 µg/mL (≈ 0.709 µM) | MIC ([1]; T. tonsurans 5, read-out: MIC GM): 0.44 µg/mL (≈ 0.624 µM) | MIC ([1]; T. tonsurans 5, read-out: MIC Mean): 0.46 µg/mL (≈ 0.652 µM) | MIC ([1]; T. tonsurans 6, read-out: MIC GM): 0.71 µg/mL (≈ 1.01 µM) | MIC ([1]; T. tonsurans 6, read-out: MIC Mean): 0.96 µg/mL (≈ 1.36 µM) | MIC ([1]; T. tonsurans 7, read-out: MIC GM): 0.56 µg/mL (≈ 0.794 µM) | MIC ([1]; T. tonsurans 7, read-out: MIC Mean): 0.58 µg/mL (≈ 0.822 µM) | MIC ([1]; T. tonsurans 8, read-out: MIC GM): 0.79 µg/mL (≈ 1.12 µM) | MIC ([1]; T. tonsurans 8, read-out: MIC Mean): 1.08 µg/mL (≈ 1.53 µM) | MIC ([1]; T. tonsurans 9, read-out: MIC GM): 0.445 µg/mL (≈ 0.631 µM) | MIC ([1]; T. tonsurans 9, read-out: MIC Mean): 0.52 µg/mL (≈ 0.737 µM) | MIC ([1]; T. tonsurans 10, read-out: MIC GM): 0.445 µg/mL (≈ 0.631 µM) | MIC ([1]; T. tonsurans 10, read-out: MIC Mean): 0.5 µg/mL (≈ 0.709 µM) | MIC ([1]; T.tonsurans 3, read-out: MIC GM): 0.196 µg/mL (≈ 0.278 µM) | MIC ([1]; T.tonsurans 3, read-out: MIC Mean): 0.27 µg/mL (≈ 0.383 µM) | MIC ([1]; read-out: MIC Mean, T. tonsurans 1): 0.21 µg/mL (≈ 0.298 µM) | MIC Range, M. canis (M. canis; 100% growth inhibition, 28° C.): 0.125 to 2.0 µg/mL | MIC (M. canis; 100% growth inhibition, 28° C., read-out: MIC GM, M. canis): 0.42 µg/mL (≈ 0.595 µM) | MIC (M. canis; 100% growth inhibition, 28° C., read-out: MIC Mean, M. canis): 0.63 µg/mL (≈ 0.893 µM) | MIC (M. canis; Table 9, read-out: MIC M. canis): 0.6 µg/mL (≈ 0.85 µM) | MIC Range, T. tonsurans (T. tonsurans; 100% growth inhibition, 28° C.): 0.25 to 2.0 µg/mL | MIC (T. tonsurans; 100% growth inhibition, 28° C., read-out: MIC GM, T. tonsurans): 0.84 µg/mL (≈ 1.19 µM) | MIC (T. tonsurans; 100% growth inhibition, 28° C., read-out: MIC Mean, T. tonsurans): 1.06 µg/mL (≈ 1.5 µM) | MIC (T. tonsurans; Table 9, read-out: MIC T. tonsurans): 1.1 µg/mL (≈ 1.56 µM) | MIC Range, M. gypseum (M. gypseum; 100% growth inhibition, 28° C.): 0.25 to 2.0 µg/mL | MIC (M. gypseum; 100% growth inhibition, 28° C., read-out: MIC GM, M. gypseum): 0.74 µg/mL (≈ 1.05 µM) | MIC (M. gypseum; 100% growth inhibition, 28° C., read-out: MIC Mean, M. gypseum): 0.93 µg/mL (≈ 1.32 µM) | MIC (M. gypseum; Table 9, read-out: MIC M. gypseum): 0.9 µg/mL (≈ 1.28 µM) | MIC Range, T. mentagrophyte (T. mentagrophytes): 0.06 to 1.0 µg/mL | MIC (T. mentagrophytes; read-out: MIC GM, T. mentagrophyte): 0.26 µg/mL (≈ 0.368 µM) | MIC (T. mentagrophytes; read-out: MIC Mean, T. mentagrophyte): 0.355 µg/mL (≈ 0.503 µM) | MIC Range, T. rubrum (T. rubrum; 100% growth inhibition, 28° C.): 0.03 to 1.0 µg/mL | MIC (T. rubrum; 100% growth inhibition, 28° C., read-out: MIC GM, T. rubrum): 0.171 µg/mL (≈ 0.242 µM) | MIC (T. rubrum; 100% growth inhibition, 28° C., read-out: MIC Mean, T. rubrum): 0.276 µg/mL (≈ 0.391 µM) | MIC (T. rubrum; Table 9, read-out: MIC T. rubrum): 0.3 µg/mL (≈ 0.425 µM)

Reference: patent US7947854B2, “Bis-cationic compounds and use thereof” (The University of Sydney, priority 2003, dated 2011)
